The text below walks through data of DBAASP.

Structures are written as SMILES. ≈ marks a conversion by molar mass, not a printed value. Some results are limits rather than exact numbers.

Some test systems named below: Escherichia coli UB1005; Staphylococcus aureus; Escherichia coli; Candida albicans; Pseudomonas aeruginosa.
Holding throughout (test): ≥ marks a high value that may be exact or a test limit, other limits are often not marked, values filed in µg/mL are converted to µM
Assay [1] concerns Pseudomonas aeruginosa PAO1.
Assay [2] relates to Staphylococcus aureus ATCC 25923.

A word on the MIC: it is the smallest concentration in the dilution series that meets the test's criterion for growth inhibition. Lower therefore signals greater potency. As for `CC[C@H](C)[C@H](NC(=O)[C@H](Cc1cnc[nH]1)NC(=O)[C@H](CCCN=C(N)N)NC(=O)[C@@H]1CCCN1C(=O)[C@@H]1CCCN1C(=O)[C@H](CCCN=C(N)N)NC(=O)[C@@H]1CCCN1C(=O)[C@H](CCCN=C(N)N)NC(=O)[C@@H]1CCCN1C(=O)[C@H](CC(C)C)NC(=O)[C@H](Cc1ccc(O)cc1)NC(=O)[C@@H]1CCCN1C(=O)[C@@H]1CCCN1C(=O)[C@H](CCCCN)NC(=O)[C@H](CC(=O)O)NC(=O)[C@@H](N)C(C)C)C(=O)N[C@@H](Cc1ccc(O)cc1)C(=O)N[C@@H](CC(N)=O)C(=O)N[C@@H](CCCN=C(N)N)C(N)=O` [VDKPPYLPRPRPPRHIYNR], the MIC in assay [1] was 27 µM (≈ 64 µg/mL); in assay [2], greater than 54 µM; in the assay with Escherichia coli UB1005, 0.548 µM (≈ 1.3 µg/mL).

As to `CC[C@H](C)[C@H](NC(=O)[C@H](CCCCN)NC(=O)[C@H](CS)NC(=O)[C@H](C)NC(=O)[C@@H](NC(=O)[C@H](Cc1ccccc1)NC(=O)CNC(=O)[C@H](CC(C)C)NC(=O)CNC(=O)[C@@H](NC(=O)[C@H](CCCCN)NC(=O)CNC(=O)[C@H](CC(C)C)NC(=O)[C@H](CC(N)=O)NC(=O)[C@H](CCCCN)NC(=O)[C@H](CC(C)C)NC(=O)[C@@H](NC(=O)[C@H](CO)NC(=O)[C@H](CC(C)C)NC(=O)[C@H](CCSC)NC(=O)[C@@H](N)CO)C(C)C)C(C)C)C(C)C)C(=O)N[C@@H](CCCCN)C(=O)N[C@@H](CCCCN)C(=O)N[C@@H](CCC(N)=O)C(=O)N[C@@H](CS)C(=O)O` [SMLSVLKNLGKVGLGFVACKIKKQC], the figures for the MIC in the assay with Staphylococcus aureus, in the assay with Escherichia coli and against Candida albicans were 20 µM (≈ 53.3 µg/mL), 10 µM (≈ 26.7 µg/mL) and 20 µM (≈ 53.3 µg/mL), respectively.

As for `CC[C@H](C)[C@H](NC(=O)CN)C(=O)NCC(=O)N[C@@H](CCCCN)C(=O)N[C@@H](Cc1ccccc1)C(=O)N[C@@H](CC(C)C)C(=O)N[C@@H](Cc1cnc[nH]1)C(=O)N[C@H](C(=O)N[C@@H](CC(C)C)C(=O)N[C@@H](CCCCN)C(=O)N[C@H](C(=O)N[C@@H](Cc1ccccc1)C(=O)NCC(=O)N[C@@H](CCCCN)C(=O)N[C@@H](CCCCN)C(=O)N[C@@H](Cc1c[nH]c2ccccc12)C(=O)N[C@H](C(=O)NCC(=O)N[C@@H](CCC(=O)O)C(=O)N[C@H](C(=O)N[C@@H](CCSC)C(=O)N[C@@H](CC(N)=O)C(=O)N[C@@H](CO)C(N)=O)[C@@H](C)CC)C(C)C)[C@@H](C)O)[C@@H](C)O` [GIGKFLHTLKTFGKKWVGEIMNS], the MIC against Staphylococcus aureus, against Pseudomonas aeruginosa and in the assay with Escherichia coli was 13 µM (≈ 33.7 µg/mL) in each case.

Consider `CC(C)C[C@H](NC(=O)[C@H](C)NC(=O)[C@H](CC(C)C)NC(=O)[C@H](CCCCN)NC(=O)[C@H](CC(C)C)NC(=O)[C@H](C)NC(=O)[C@H](CC(C)C)NC(=O)[C@@H](N)CCCCN)C(=O)N[C@@H](CCCCN)C(=O)N[C@@H](C)C(=O)N[C@@H](Cc1c[nH]c2ccccc12)C(=O)N[C@@H](CCCCN)C(=O)N[C@@H](C)C(=O)N[C@@H](C)C(=O)N[C@@H](CC(C)C)C(=O)N[C@@H](CCCCN)C(=O)N[C@@H](CC(C)C)C(=O)N[C@@H](C)C(N)=O` [KLALKLALKAWKAALKLA], for which the MIC turned out to be 1.84 µM (≈ 3.58 µg/mL) against Staphylococcus aureus, 14.7 µM (≈ 28.7 µg/mL) against Pseudomonas aeruginosa and 3.68 µM (≈ 7.17 µg/mL) with Escherichia coli.

`CC[C@H](C)[C@H](N)C(=O)N[C@@H](CC(C)C)C(=O)NCC(=O)N[C@@H](C)C(=O)N[C@H](C(=O)N[C@H](C(=O)N1CCC[C@H]1C(=O)N[C@@H](CC(C)C)C(=O)N[C@H](C(=O)N[C@@H](CO)C(=O)NCC(=O)N[C@@H](CC(C)C)C(=O)N[C@@H](CC(C)C)C(=O)N[C@@H](CO)C(=O)N[C@@H](Cc1cnc[nH]1)C(=O)N[C@@H](CC(C)C)C(N)=O)C(C)C)[C@@H](C)CC)[C@@H](C)CC` [ILGAIIPLVSGLLSHL]: the MIC in the assay with Staphylococcus aureus is 19.3 µM (≈ 31.2 µg/mL); against Escherichia coli, greater than 400 µM; with Candida albicans, 310 µM (≈ 501 µg/mL).
